One substance from US9447108B2 (SZEGEDI TUDOMÁNYEGYETEM, priority 2013, dated 2016) can be followed below.

The target of assay [1] is T1, δ-opioid receptors (Rattus norvegicus, UniProt P33533).
T1 construct: A crude membrane fraction was prepared from Wistar rat brains and spinal cords; from tissue; host or cells: Wistar rat brain (without cerebellum), crude membrane fraction
The assay is described as follows: Receptor binding assay, [3H]Ile5,6-deltorphin-2 displacement in rat brain membranes. The conditions noted are these: [3H]Ile5,6-deltorphin-2, rat brain membranes; read-out: Ki^δ.

Assay [2] deals with rats. Briefly: Behavioral nociceptive testing, paw-withdrawal test (PWD), heat pain threshold. The class given is in vivo, rat. Here is the method: The paw-withdrawal test (PWD) was used to measure the heat pain threshold after the treatments. A detailed description of this model was published by Hargreaves et al. (Hargreaves, K.; Dubner, R.; Brown, F.; Flores, C.; Joris, J. Pain; 32, 77 1988). Briefly, rats were placed on a glass surface in a plastic chamber and were allowed to acclimatize to their environment for 15-30 min before testing. The baseline hind paw-withdrawal latencies (baseline values at 0 min determined two times) were then obtained. A heat stimulus was directed onto the plantar surface of each hind paw and the intensity of the thermal stimulus was adjusted to derive an average baseline latency of approximately 10 s (cut-off time 20 s). Then the animals were treated subcutaneously with different doses of ligands (0.3-10 mg/kg). The nociceptive threshold was determined at 15-min intervals for 120 min.
Data are presented as means±SEM. The mean of the two sides and the mean of two time points (15-30; 45-60; 75-90 and […]) were evaluated. The results were analyzed using a two-way ANOVA (ANalysis Of VAriances) (factors: treatment and time with repeated measurements). Subsequent analysis was performed using Fisher-LSD test. A p-value less than 0.05 was considered significant. Data were analyzed using […] 7.1. software (Statsoft Inc., Tulsa, Okla.).

The target of assay [3] is T2, μ-opioid receptors (Rattus norvegicus, UniProt P33535).
T2 construct: A crude membrane fraction was prepared from Wistar rat brains and spinal cords; from tissue; host or cells: Wistar rat brain (without cerebellum), crude membrane fraction
T2 sequence (P33535 whole entry): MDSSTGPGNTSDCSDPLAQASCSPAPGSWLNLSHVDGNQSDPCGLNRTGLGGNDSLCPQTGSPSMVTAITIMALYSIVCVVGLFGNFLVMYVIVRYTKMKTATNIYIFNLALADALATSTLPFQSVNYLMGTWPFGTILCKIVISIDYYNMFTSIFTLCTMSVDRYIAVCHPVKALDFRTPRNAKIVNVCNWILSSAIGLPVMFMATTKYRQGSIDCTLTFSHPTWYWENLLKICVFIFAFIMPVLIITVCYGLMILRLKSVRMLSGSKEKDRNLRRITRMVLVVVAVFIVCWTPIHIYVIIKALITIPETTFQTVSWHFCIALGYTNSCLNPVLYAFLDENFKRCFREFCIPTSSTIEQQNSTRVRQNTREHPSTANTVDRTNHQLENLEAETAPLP
Briefly: Receptor binding assay, [3H]DAMGO displacement in rat brain membranes.

For orientation: Ki means the equilibrium dissociation constant of an inhibitor or competing ligand from its target.

T1 sequence (P33533 whole entry): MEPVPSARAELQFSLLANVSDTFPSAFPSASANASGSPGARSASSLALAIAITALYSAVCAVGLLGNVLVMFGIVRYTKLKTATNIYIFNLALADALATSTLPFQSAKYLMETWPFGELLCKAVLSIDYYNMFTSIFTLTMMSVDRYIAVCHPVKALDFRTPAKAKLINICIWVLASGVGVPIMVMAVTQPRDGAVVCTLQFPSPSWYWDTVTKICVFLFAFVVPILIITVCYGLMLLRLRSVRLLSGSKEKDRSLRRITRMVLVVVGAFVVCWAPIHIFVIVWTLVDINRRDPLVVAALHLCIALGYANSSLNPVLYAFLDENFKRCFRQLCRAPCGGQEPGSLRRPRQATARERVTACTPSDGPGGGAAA

As for “(5α,6α,7β,8β)-4,5-epoxy-3-ethoxy-6-hydroxy-17-methyl-(7,8-^2H2)-morphinan [Example 3]”, the inhibition constant Ki was 6.12 ± 0.845 µM in assay [1] and 0.205 ± 0.0631 µM in assay [3] ([3H]DAMGO, rat brain membranes, read-out: Ki^μ). Further, the “Time course of the antinociceptive effects (paw-withdrawal latency)” value in assay [2] (3 mg/kg s.c., 0 min (baseline)) worked out at 10.0 s; in assay [2] (3 mg/kg s.c., 30 min), 12.2 s; in assay [2] (3 mg/kg s.c., 60 min), 11.6 s; in assay [2] (3 mg/kg s.c., 90 min), 11.4 s; in assay [2] (3 mg/kg s.c., 120 min), 11.1 s; in assay [2] (10 mg/kg s.c., 0 min (baseline)), 10.1 s. Besides, the “Time course of the antinociceptive effects (paw-withdrawal latency)” value in assay [2] (10 mg/kg s.c., 30 min) is 12.1 s; in assay [2] (10 mg/kg s.c., 60 min) it was 13.1 s; in assay [2] (10 mg/kg s.c., 90 min), 12.9 s; in assay [2] (10 mg/kg s.c., 120 min) it was 11.1 s. For the same substance, the “antinociceptive effect compared to non-deuterated analogues” value in assay [2] (10 mg/kg s.c., in words) was “increased and prolonged the effect”. Besides, the “antinociception, potency and dose dependence” value in assay [2] (s.c., 0.3-10 mg/kg, in words) was “lower potency”. For the same substance, the “Ki^δ/Ki^μ” value in assay [3] (selectivity ratio δ/μ) was 30.
